Laboratory results as given in US20090221647A1, “N-(2-THIAZOLYL)-AMIDE DERIVATIVES AS GSK-3 INHIBITORS” (NOSCIRA, S.A., priority 2006, published 2009).

Key:
[1] = tested on: phosphorylated human Tau [pS396] in SHSY5Y cells; assay: Inhibition of tau phosphorylation in SHSY5Y cells (Tau [pS396] sandwich ELISA); format: cell-based; set-up: key: “NEG” means no tau phosphorylation inhibition was detected at the referred concentration of compound (I); “POS” means that at the referred concentration tau phosphorylation inhibition was detected; settings: 18 h
Method: Human neuroblastoma SHSY5Y cells were seeded in the presence of Minimum Essential Medium/Nutrient Mixture F-12. One day later, cells are treated with samples for 18 h at 37° C. After treatment, cultures are washed with phosphate-buffered saline and lysed for 30 min at 4° C. in extraction buffer (10 mM Tris-HCl, pH 7.4, 100 mM NaCl, 1 mM EDTA, 2 mM Na3VO4, 1% Triton X-100, 10% glycerol, 0.1% SDS, 0.5% Sodium deoxycholate, 1 mM PMSF and a protease inhibitor cocktail (Roche, Cat 1 697 498)).
The quantitative determination of phosphorylated human Tau is made taking aliquots of the cell lysate and using a phosphorylation-specific antibody against Tau [pS396] in a sandwich ELISA (Biosource, Cat KHB7031). Tau phosphorylation is estimated by measuring the absorbance at 450 nm in a microtiter plate reader (Cultek, Anthos 2010).
The effect of the synthesized compound according to example 1 and that of another 6 compounds of formula (I) is determined at different final concentrations, namely 50, 100 and 200 μM. Not all the compounds of formula (I) were tested at all the concentrations. The results are indicated in Table 1 (see below) as “NEG” and “POS”, respectively meaning “negative” and “positive”; “NEG” means no tau phosphorylation inhibition was detected at the referred concentration of compound (I); “POS” means that at the referred concentration tau phosphorylation inhibition was detected.

[2] = molecular target: T1, Recombinant human glycogen synthase kinase 3β (Homo sapiens, UniProt P49841); assay: GSK-3β inhibition (radiometric 33P-ATP, GS-2 peptide substrate); format: biochemical; settings: remaining GSK-3 activity
T1 construct: purchased Upstate 14-306
T1 sequence (P49841 whole entry): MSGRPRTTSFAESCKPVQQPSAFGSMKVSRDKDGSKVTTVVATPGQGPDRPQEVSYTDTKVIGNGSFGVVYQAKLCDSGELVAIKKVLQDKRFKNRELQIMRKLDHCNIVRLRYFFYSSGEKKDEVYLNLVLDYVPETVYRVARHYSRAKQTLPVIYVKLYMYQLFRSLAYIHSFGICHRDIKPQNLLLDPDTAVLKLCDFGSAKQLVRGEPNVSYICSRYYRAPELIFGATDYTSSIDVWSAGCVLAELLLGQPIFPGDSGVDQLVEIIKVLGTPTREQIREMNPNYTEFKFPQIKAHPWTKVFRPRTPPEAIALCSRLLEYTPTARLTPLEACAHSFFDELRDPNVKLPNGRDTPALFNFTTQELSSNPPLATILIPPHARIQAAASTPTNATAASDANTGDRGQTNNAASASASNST
Method: This assay is based on the protocol detailed by Upstate Cat. 14-306, making some slight modifications.
Recombinant human glycogen synthase kinase 3β is assayed in MOPS 11 mM pH7.4, EDTA 0.2 mM, EGTA 1.25 mM, MgCl2 26.25 mM and sodium orthovanadate 0.25 mM in the presence of 62.5 μM of Phospho-Glycogen Synthase Peptide-2 (GS-2) (TOCRIS, Cat. 1352), 0.5 μCi γ-^33P-ATP and unlabelled ATP (Sigma, A-9187) at a final concentration of 12.5 μM. After incubation for 30 minutes at 30° C., aliquots are spotted onto P81 phosphocellulose papers. Filters are washed four times for at least 10 minutes each with 1% phosphoric acid and counted with scintillation cocktail in a scintillation counter (PerkinElmer, Microbeta 1450). The activity of GSK-3 is tested at concentrations of 25 and 50 μM, in the presence of the compound synthesized according to example 1 and in the presence of another 6 compounds of formula (I). The results obtained are indicated in Table I (see below), in the form of percentage of GSK-3 activity.

SH-SY5Y cells = assay: Cell survival by LDH release in SH-SY5Y cells; format: cell-based
Method: In addition to tau phosphorylation assays, quantification of cell death due to potential toxicity of compounds 1 and 3 described above is made by measuring LDH release (Roche, Cat 1 644 793). For the quantitative determination of cell survival, aliquots of the cell lysate are incubated with an equal volume of reaction mixture at room temperature for 20-30 min. The measure of absorbance is made in a microtiter plate reader with 490-492 nm filter (Cultek, Anthos 2010).
For compounds 1 and 3, the cell survival was measured at 24 hours treatment (see Table 2), and for compound 2 was measured at 18 hours treatment (see Table 3), in SH-SY5Y cells. It is generally considered that a compound is considered toxic if less than 80% of the cells survive after treatment with a compound.

O=C(CCc1cccnc1)Nc1ncc([N+](=O)[O-])s1 [Compound 2]
Tau phosphorylation inhibition in cells ([1]; 50 μM compound): POS | Tau phosphorylation inhibition in cells ([1]; 100 μM compound): POS | % GSK-3 Activity ([2]; 25 μM compound): 8.3% | % GSK-3 Activity ([2]; 50 μM compound): 5.36% | % of cell viability (SH-SY5Y cells; 50 μM, 18 hours treatment): 95.7 ± 4.2% | % of cell viability (SH-SY5Y cells; 100 μM, 18 hours treatment): 93.7 ± 7.1%

O=C(Cc1ccccc1)Nc1ncc([N+](=O)[O-])s1 [Compound 7]
Tau phosphorylation inhibition in cells ([1]; 50 μM compound): POS | Tau phosphorylation inhibition in cells ([1]; 100 μM compound): POS | % GSK-3 Activity ([2]; 25 μM compound): 13.73% | % GSK-3 Activity ([2]; 50 μM compound): 8.05%

O=C(Cc1cccnc1)Nc1ncc(Cl)s1 [Compound 4]
Tau phosphorylation inhibition in cells ([1]; 50 μM compound): NEG | Tau phosphorylation inhibition in cells ([1]; 100 μM compound): POS | % GSK-3 Activity ([2]; 25 μM compound): 5.6% | % GSK-3 Activity ([2]; 50 μM compound): 13.8%

O=C(Cc1cccnc1)Nc1ncc([N+](=O)[O-])s1 [Compound 1, N-(5-Nitro-thiazol-2-yl)-2-pyridin-3-yl-acetamide]
Tau phosphorylation inhibition in cells ([1]; 50 μM compound): POS | Tau phosphorylation inhibition in cells ([1]; 100 μM compound): POS | % GSK-3 Activity ([2]; 25 μM compound): 5.21% | % GSK-3 Activity ([2]; 50 μM compound): 2.78% | % of cell viability (SH-SY5Y cells; 50 μM, 24 hours treatment): 94.1 ± 1.8% | % of cell viability (SH-SY5Y cells; 100 μM, 24 hours treatment): 86.5 ± 4.7%

O=C(Cc1cccnc1)Nc1nccs1 [Compound 6]
% GSK-3 Activity ([2]; 25 μM compound): 22.29% | % GSK-3 Activity ([2]; 50 μM compound): 50.90%

O=C(Cc1ccccn1)Nc1ncc([N+](=O)[O-])s1 [Compound 3]
Tau phosphorylation inhibition in cells ([1]; 50 μM compound): NEG | Tau phosphorylation inhibition in cells ([1]; 100 μM compound): POS | % GSK-3 Activity ([2]; 25 μM compound): 9.49% | % GSK-3 Activity ([2]; 50 μM compound): 4.1% | % of cell viability (SH-SY5Y cells; 50 μM, 24 hours treatment): 87 ± 6.0% | % of cell viability (SH-SY5Y cells; 100 μM, 24 hours treatment): 85.4 ± 2.7%

O=C(Nc1ncc([N+](=O)[O-])s1)c1ccccn1 [Compound 5]
% GSK-3 Activity ([2]; 25 μM compound): 76.72% | % GSK-3 Activity ([2]; 50 μM compound): 43.78%
